Experimental data: PMC8855934 (Journal of medicinal chemistry, 2021)
Residue numbers refer to the chain shown, from its start.

Columns and labels:
VCaP cell line = test: Cell growth inhibition in the VCaP cell line; type: cell-based, human
Pharmacokinetics in mice = type: in vivo; conditions: male, mouse, in vivo
AR T878A mutant protein = target: T1, AR T878A mutant protein (Homo sapiens, UniProt P10275, T878A)
T1 sequence (P10275 1-920 T878A): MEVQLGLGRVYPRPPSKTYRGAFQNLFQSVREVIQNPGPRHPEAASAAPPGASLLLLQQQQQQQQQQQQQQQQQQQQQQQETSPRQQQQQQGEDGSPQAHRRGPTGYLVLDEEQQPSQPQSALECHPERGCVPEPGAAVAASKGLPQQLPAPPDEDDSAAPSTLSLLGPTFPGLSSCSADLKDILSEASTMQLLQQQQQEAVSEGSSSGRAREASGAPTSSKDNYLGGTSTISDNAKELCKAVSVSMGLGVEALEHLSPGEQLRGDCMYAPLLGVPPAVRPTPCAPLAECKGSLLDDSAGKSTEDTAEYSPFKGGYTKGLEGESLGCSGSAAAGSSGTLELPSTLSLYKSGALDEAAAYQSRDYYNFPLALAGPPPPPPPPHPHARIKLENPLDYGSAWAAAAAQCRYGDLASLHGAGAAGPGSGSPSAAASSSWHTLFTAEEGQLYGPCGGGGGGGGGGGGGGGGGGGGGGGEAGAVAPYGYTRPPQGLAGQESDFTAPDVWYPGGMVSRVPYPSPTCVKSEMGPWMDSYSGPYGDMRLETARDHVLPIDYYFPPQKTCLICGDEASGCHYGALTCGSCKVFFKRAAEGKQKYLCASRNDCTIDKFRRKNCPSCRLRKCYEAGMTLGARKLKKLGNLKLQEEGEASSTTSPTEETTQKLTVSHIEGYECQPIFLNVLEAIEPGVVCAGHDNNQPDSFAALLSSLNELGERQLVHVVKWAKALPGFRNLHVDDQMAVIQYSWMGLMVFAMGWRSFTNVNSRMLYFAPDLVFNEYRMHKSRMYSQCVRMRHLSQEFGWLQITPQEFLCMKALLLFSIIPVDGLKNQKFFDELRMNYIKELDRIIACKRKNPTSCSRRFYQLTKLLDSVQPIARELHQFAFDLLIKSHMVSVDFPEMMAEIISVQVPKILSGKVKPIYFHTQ

AR protein [1] = target: T2, AR protein (Homo sapiens, UniProt P10275); test: AR degradation in VCaP cell line; type: cell-based
T2 sequence (P10275 1-920): T1 sequence (P10275 1-920 T878A) with A878T

[2] = target: T3, AR double mutations (L702H and T878A) (Homo sapiens, UniProt P10275, L702H/T878A); conditions: MDA-PCa-2b, 24 h, Figure 7
T3 sequence (P10275 1-920 L702H/T878A): T1 sequence (P10275 1-920 T878A) with L702H

[3] = Tissue distribution studies of ARD-2585 in mice bearing VCaP tumors; type: in vivo; conditions: male, SCID, mouse, po, 20 mg/kg
[4] = test system: AR protein (22Rvl cell line with F876L mutation); test: AR degradation in 22Rv1 cell line; type: cell-based, human; conditions: 22Rv1, 24 h
AR protein [5] = target: T2, AR protein; conditions: single oral administration 20 mg/kg, 6 and 24 h time-points, Western blotting

CCCN(c1ccc(C#N)c(Cl)c1)[C@H]1CC[C@H](NC(=O)c2ccc(N3CCC(N4CCN(c5ccc6c(c5)C(=O)N(C5CCC(=O)NC5=O)C6=O)CC4)CC3)cc2)CC1 (stereo partly drawn) [Compound 37, N-(1R,4R)-4-(((3-Chloro-4-cyanophenyl)(propyl)amino)-cyclohexyl)-4-(4-(4-(2-(2,6-dioxopiperidin-3-yl)-1,3-dioxoisoindolin-5-yl)piperazin-1-yl)piperidin-1-yl)benzamide]
times less potent than compounds 35 and 36 (cell growth inhibition) (VCaP cell line): > 40

CN(c1ccc(C#N)c(Cl)c1)[C@H]1CC[C@H](NC(=O)c2ccc(N3CCN(C4CN(c5ccc6c(c5)C(=O)N(C5CCC(=O)NC5=O)C6=O)C4)CC3)cc2)CC1 (stereo partly drawn) [Compound 43, N-(1R,4R)-4-(((3-Chloro-4-cyanophenyl)(methyl)amino)-cyclohexyl)-4-(4-(1-(2-(2,6-dioxopiperidin-3-yl)-1,3-dioxoisoindolin-5-yl)azetidin-3-yl)piperazin-1-yl)benzamide]
Vd (Pharmacokinetics in mice; iv, 2 mg/kg): 1.8 to 2.1 L/kg
clearance (Pharmacokinetics in mice; iv, 2 mg/kg): 3.33 to 5 mL/min/kg
half-life (Pharmacokinetics in mice; iv, 2 mg/kg): 5.5 to 7.5 h
AUC(0-t) (Pharmacokinetics in mice; po, 3 mg/kg): 8640 ng·h/mL
Dmax, AR degradation in LNCaP cell line (AR T878A mutant protein; LNCaP cell line (AR T878A), Western blotting, listed as ARD-2585): > 98%
reduction of AR protein (mechanism study) (AR T878A mutant protein; LNCaP cells, 100 nM, 3 h treatment): effectively reduces
reduction of AR protein level (degradation kinetics) (AR T878A mutant protein; LNCaP, 1 h): effectively reduce
Dmax, AR degradation in VCaP cell line (AR protein [1]; VCaP cell line, 24 h treatment, Western blotting, listed as ARD-2585): > 98%
reduction of AR protein (mechanism study) (AR protein [1]; VCaP cells, 100 nM, 3 h treatment): effectively reduces
reduction of AR protein level (degradation kinetics) (AR protein [1]; VCaP, 1 h): effectively reduce
concentration as low as which AR protein level is reduced by >80% [2]: 1 nM
concentration at 6 h ([3]; plasma): 134 ± 98 ng/mL
concentration at 24 h ([3]; plasma): 214 ± 78 ng/mL
concentration at 24 h ([3]; prostate): 109 ± 23 ng/g
Dmax, AR degradation in 22Rv1 cell line [4]: > 95%
reduction of AR protein level in VCaP tumor tissue (AR protein [5]): effective

N#Cc1ccc(N[C@H]2CC[C@H](NC(=O)c3ccc(N4CCC(N5CCN(c6ccc7c(c6)C(=O)N(C6CCC(=O)NC6=O)C7=O)CC5)CC4)cc3)CC2)cc1Cl (stereo partly drawn) [Compound 34, N-(1R,4R)-4-(((3-Chloro-4-cyanophenyl)amino)cyclohexyl)-4-(4-(4-(2-(2,6-dioxopiperidin-3-yl)-1,3-dioxoisoindolin-5-yl)piperazin-1-yl)piperidin-1-yl)benzamide]
times less potent than compounds 35 and 36 (cell growth inhibition) (VCaP cell line): ~10
